According to patent US20260001914A1, “MACROCYCLIC PEPTIDES TARGETING KRAS” (Merck Sharp & Dohme LLC, priority 2022, published 2026):
*1 amine or outer side, *2 acyl side, *3 side chain or, on linkers, in order; H or OH if unused. Where a SMILES comes first, the peptide text is derived from it. Bridges are numbered along the chain shown (N, C = ends). [ ]: non-standard residue; d: D form. Phe(4-guanidino) = N=C(N)Nc1ccc(C[C@H](N)C(=O)O)cc1; X22 = CNC(=N)N(C)CCC[C@@H](C(=O)[*:2])N(C)[*:1]; Ala(pyrimidin-5-yl) = N[C@@H](Cc1cncnc1)C(=O)O; NMe3Pal(5-F) = CN[C@@H](Cc1cncc(F)c1)C(=O)O; NMePhe(3-Me) = CN[C@@H](Cc1cccc(C)c1)C(=O)O; X25 = O=C([C@H](Cc1ccc(F)nc1)N[*:1])[*:2]; X5 = O=C([C@H](Cc1c(F)ccnc1F)N[*:1])[*:2]; Lys(N3) = [N-]=[N+]=NCCCC[C@H](N)C(=O)O; X11 = CC(C)(F)CC[C@H](N[*:1])C(=O)[*:2]; NMeAha = CN[C@@H](CCN=[N+]=[N-])C(=O)O; Nle(5,5-F2) = CC(F)(F)CC[C@H](N)C(=O)O; X21 = O=C([C@@H]1C[C@H]1CN[*:1])[*:2]; Phe(2-F) = N[C@@H](Cc1ccccc1F)C(=O)O; X31 = O=C([C@H](CCC1CC1)N[*:1])[*:2]; NMe3Pal = CN[C@@H](Cc1cccnc1)C(=O)O; X1 = O=C(C12CC(CN[*:1])(C1)C2)[*:2]; X38 = NC(=O)CCCN(CC(=O)[*:2])[*:1]; X41 = COCCC[C@H](N[*:1])C(=O)[*:2]; NMeR = CN[C@@H](CCCNC(=N)N)C(=O)O; Ala(cPr) = N[C@@H](CC1CC1)C(=O)O; NMeF = CN[C@@H](Cc1ccccc1)C(=O)O; PhLac = O=C(O)[C@@H](O)Cc1ccccc1; X9 = CCCC[C@H](O[*:1])C(=O)[*:2]; 3Pal = N[C@@H](Cc1cccnc1)C(=O)O; Ahp(2) = CCCCC[C@H](N)C(=O)O; Cba = N[C@@H](CC1CCC1)C(=O)O; hLeu = CC(C)CC[C@H](N)C(=O)O; NMeAbu = CC[C@H](NC)C(=O)O; NMeS = CN[C@@H](CO)C(=O)O; αMeC = C[C@](N)(CS)C(=O)O; NMeA = CN[C@@H](C)C(=O)O; Nle = CCCC[C@H](N)C(=O)O

The compounds below were run against phosphorylation levels of ERK1/2 in AsPC-1 (homozygous KRAS-G12D) cells (Homo sapiens, UniProt P01116, G12D) (assay: Cellular phospho-ERK assay in AsPC-1 cells (Alpha Screen), assay medium without fetal bovine serum). Conditions: phospho-ERK AlphaScreen, 18 h.
phosphorylation levels of ERK1/2 in AsPC-1 (homozygous KRAS-G12D) cells, sequence (P01116 1-186 G12D): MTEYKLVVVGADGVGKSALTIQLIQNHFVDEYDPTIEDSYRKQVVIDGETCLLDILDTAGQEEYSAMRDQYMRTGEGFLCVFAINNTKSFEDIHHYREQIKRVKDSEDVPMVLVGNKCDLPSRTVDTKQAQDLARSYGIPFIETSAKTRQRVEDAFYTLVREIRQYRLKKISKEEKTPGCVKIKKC
Format: cell-based
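Also: signal taken as phospho-ERK over total ERK per well, both detected in one multiplex bead assay, EC50 from four-parameter logistic fit of dose-response curves.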

Row | SMILES | EC50 [µM]
1 | CCCC[C@@H]1NC(=O)[C@H](Cc2cccnc2)NC(=O)[C@H](C)N(C)C(=O)[C@H](Cc2ccccc2)OC(=O)C23CC(CNC(=O)[C@H](Cc4ccccc4)N(C)C(=O)[C@H](CCCC)NC(=O)[C@H](Cc4ccccc4F)NC1=O)(C2)C3 [compound 236, cyclo(FLac-NMeA-3Pal-Nle-Phe2F-Nle-NMeF-amBCP)] (cyclo([3Pal][Nle][Phe(2-F)][Nle][NMeF][X1][PhLac][NMeA])) | 1.44
2 | CCCC[C@@H]1NC(=O)[C@H](CCCOC)NC(=O)[C@H](CC2CCC2)NC(=O)[C@H](Cc2cccnc2)NC(=O)[C@H](CCCNC(=N)N)NC(=O)[C@H](Cc2ccccc2)NC(=O)CSC[C@@](C)(C(N)=O)NC(=O)[C@H](Cc2ccccc2)N(C)C1=O [compound 55, cyclo(F-R-3Pal-cBuA-NvaOMe-Nle-NMeF-aMeCl-ClAc)] ({CH2CO}-FR[3Pal][Cba][X41][Nle][NMeF][αMeC]-NH2; thioether N-8) | > 50.8
3 | CCCC[C@@H]1NC(=O)[C@H](Cc2cccnc2)NC(=O)[C@H](CC)N(C)C(=O)[C@H](Cc2ccccc2)OC(=O)C23CC(CNC(=O)[C@H](Cc4cccnc4)N(C)C(=O)[C@H](CCCC)NC(=O)[C@H](Cc4ccccc4F)NC1=O)(C2)C3 [compound 404, cyclo(FLac-NMeAbu-3Pal-Nle-Phe2F-Nle-NMe3Pal-amBCP)] (cyclo([3Pal][Nle][Phe(2-F)][Nle][NMe3Pal][X1][PhLac][NMeAbu])) | 31
4 | CON=C1C[C@@H](Cc2ccccc2)C(=O)N(C)[C@@H](C)C(=O)N[C@@H](Cc2cncnc2)C(=O)N[C@@H](CC2CC2)C(=O)N[C@@H](Cc2ccccc2F)C(=O)N[C@@H](CCC(C)(F)F)C(=O)N(C)[C@@H](Cc2ccccc2)C(=O)NCC23CC1(C2)C3 (single isomer, unassigned) [compound 177, cyclo(CPhe-NMeA-PyrimAla-cPrA-Phe2F-Nle3F2-NMeF-MeOximamBCP)] | 3.4
5 | CCCC[C@@H]1NC(=O)[C@H](Cc2cccnc2)NC(=O)[C@H](C)N(C)C(=O)[C@H](Cc2ccc(OC)cc2)NC(=O)C23CC(CNC(=O)[C@H](Cc4cccnc4)N(C)C(=O)[C@H](CCCC)NC(=O)[C@H](Cc4ccccc4F)NC1=O)(C2)C3 [compound 169, cyclo(TyrOMe-NMeA-3Pal-Nle-Phe2F-Nle-NMe3Pal-amBCP)] (cyclo([3Pal][Nle][Phe(2-F)][Nle][NMe3Pal][X1]Y(Me)[NMeA])) | > 50.8
6 | CCCC[C@@H]1NC(=O)[C@H](Cc2ccc(C(F)(F)F)nc2)NC(=O)[C@H](CCCn2ccnc2)N(C)C(=O)[C@H](Cc2ccccc2)OC(=O)C23CC(CNC(=O)[C@H](Cc4ccccc4)N(C)C(=O)[C@H](CCCC)NC(=O)[C@H](Cc4ccccc4F)NC1=O)(C2)C3 (single isomer, unassigned) [compound 218, cyclo(FLac-NMeNvalmid-4CF33Pal-Nle-Phe2F-Nle-NMeF-amBCP)] | > 50.8
7 | Cc1cccc(C[C@H]2C(=O)NCC34CC(C3)(C4)C(=O)O[C@@H](Cc3ccccc3)C(=O)N(C)[C@@H](C)C(=O)N[C@@H](Cc3cncnc3)C(=O)N[C@@H](CC3CC3)C(=O)N[C@@H](Cc3ccccc3F)C(=O)N[C@@H](CCC(C)(C)F)C(=O)N2C)c1 [compound 274, cyclo(FLac-NMeA-PyrimAla-cPrA-Phe2F-hL3F-NMePhe3Me-amBCP)] (cyclo([Ala(cPr)][Phe(2-F)][X11][NMePhe(3-Me)][X1][PhLac][NMeA][Ala(pyrimidin-5-yl)])) | 0.604
8 | CCCCC[C@@H]1NC(=O)[C@H](Cc2ccc(OC)cc2)NC(=O)[C@H](CC2CCC2)NC(=O)[C@H](Cc2ccc(NC(=N)N)cc2)NC(=O)CN(CCCC(N)=O)C(=O)[C@H](Cc2ccccc2)NC(=O)CSC[C@@](C)(C(N)=O)NC(=O)[C@H](Cc2ccccc2)N(C)C1=O [compound 386, cyclo(F-Cmpg-Phe4Gn-cBuA-TyrOMe-Abp-NMeF-aMeCl-ClAc)] ({CH2CO}-F[X38][Phe(4-guanidino)][Cba]Y(Me)[Ahp(2)][NMeF][αMeC]-NH2; thioether N-8) | > 50.8
9 | C[C@H]1C(=O)N[C@@H](Cc2cccnc2)C(=O)N[C@@H](CC2CCC2)C(=O)N[C@@H](Cc2ccccc2F)C(=O)N[C@@H](CCC(C)(F)F)C(=O)N(C)[C@@H](Cc2cncc(F)c2)C(=O)NCC23CC(C2)(C3)C(=O)O[C@@H](Cc2ccccc2)C(=O)N1C [compound 285, cyclo(FLac-NMeA-3Pal-cBuA-Phe2F-Nle3F2-NMe3Pal5F-amBCP)] (cyclo([3Pal][Cba][Phe(2-F)][Nle(5,5-F2)][NMe3Pal(5-F)][X1][PhLac][NMeA])) | 5.78
10 | CCCCC[C@@H]1NC(=O)[C@H](Cc2ccc(OC)cc2)NC(=O)[C@H](CC2CCC2)NC(=O)[C@H](Cc2ccc(C)nc2)NC(=O)[C@H](CCCNC(=N)N)NC(=O)[C@H](Cc2ccccc2)NC(=O)CSC[C@@](C)(C(N)=O)NC(=O)[C@H](Cc2ccccc2)N(C)C1=O [compound 364, cyclo(F-R-4Me3Pal-cBuA-TyrOMe-Ahp-NMeF-aMeCl-ClAc)] | > 50.8
11 | CCCC[C@@H]1NC(=O)[C@H](Cc2ccc(F)nc2)NC(=O)[C@H](C)N(C)C(=O)[C@H](Cc2ccccc2)OC(=O)C23CC(CNC(=O)[C@H](Cc4ccccc4)N(C)C(=O)[C@H](CCCC)NC(=O)[C@H](Cc4ccccc4F)NC1=O)(C2)C3 [compound 231, cyclo(FLac-NMeA-4F3Pal-Nle-Phe2F-Nle-NMeF-amBCP)] (cyclo([NMeA][X25][Nle][Phe(2-F)][Nle][NMeF][X1][PhLac])) | 0.589
12 | CCCC[C@@H]1NC(=O)[C@H](Cc2cccnc2)NC(=O)[C@H](CO)N(C)C(=O)[C@H](Cc2ccccc2)OC(=O)C23CC(CNC(=O)[C@H](Cc4cccnc4)N(C)C(=O)[C@H](CCCC)NC(=O)[C@H](Cc4ccccc4F)NC1=O)(C2)C3 [compound 118, cyclo(FLac-NMeS-3Pal-Nle-Phe2F-Nle-NMe3Pal-amBCP)] (cyclo([3Pal][Nle][Phe(2-F)][Nle][NMe3Pal][X1][PhLac][NMeS])) | > 50.8
13 | CCCC[C@@H]1NC(=O)[C@H](Cc2ccccc2F)NC(=O)[C@H](CC2CCC2)NC(=O)[C@H](Cc2cncnc2)NC(=O)[C@H](C)N(C)C(=O)[C@H](Cc2ccccc2)OC(=O)C23CC(CNC(=O)[C@H](Cc4cccnc4)N(C)C1=O)(C2)C3 [compound 125, cyclo(FLac-NMeA-PyrimAla-cBuA-Phe2F-Nle-NMe3Pal-amBCP)] (cyclo([Cba][Phe(2-F)][Nle][NMe3Pal][X1][PhLac][NMeA][Ala(pyrimidin-5-yl)])) | 45
14 | CCCC[C@@H]1NC(=O)[C@H](Cc2cncnc2)NC(=O)[C@H](C)N(C)C(=O)[C@H](Cc2ccccc2)OC(=O)C23CC(CNC(=O)[C@H](Cc4ccccc4)N(C)C(=O)[C@H](CCCC)NC(=O)[C@H](Cc4ccccc4F)NC1=O)(C2)C3 [compound 230, cyclo(FLac-NMeA-PyrimAla-Nle-Phe2F-Nle-NMeF-amBCP)] (cyclo([NMeA][Ala(pyrimidin-5-yl)][Nle][Phe(2-F)][Nle][NMeF][X1][PhLac])) | 0.59
15 | CCCC[C@@H]1NC(=O)[C@H](Cc2cccnc2)NC(=O)[C@H](CCCNC(=N)N)N(C)C(=O)[C@H](Cc2ccccc2)NC(=O)[C@@H]2C[C@H]2CNC(=O)[C@H](Cc2ccccc2)N(C)C(=O)[C@H](CCCCN=[N+]=[N-])NC(=O)[C@H](Cc2ccc(OC)cc2)NC1=O [compound 94, cyclo(F-NMeR-3Pal-Nle-TyrOMe-LysN3-NMeF-tamcPr)] (cyclo(F[NMeR][3Pal][Nle]Y(Me)[Lys(N3)][NMeF][X21])) | > 50.8
16 | CCCCC[C@@H]1NC(=O)[C@H](Cc2ccc(OC)cc2)NC(=O)[C@H](CC2CCC2)NC(=O)[C@H](Cc2ccc(NC(=N)N)cc2)NC(=O)[C@H](CCCN(C)C(=N)NC)N(C)C(=O)[C@H](Cc2ccccc2)NC(=O)CSC[C@@](C)(C(N)=O)NC(=O)[C@H](Cc2ccccc2)N(C)C1=O [compound 381, cyclo(F-NMeArg1MeMe-Phe4Gn-cBuA-TyrOMe-Ahp-NMeF-aMeCl-ClAc)] ({CH2CO}-F[X22][Phe(4-guanidino)][Cba]Y(Me)[Ahp(2)][NMeF][αMeC]-NH2; thioether N-8) | > 50.8
17 | C[C@H]1C(=O)N[C@@H](Cc2cncnc2)C(=O)N[C@@H](CC2CCC2)C(=O)N[C@@H](Cc2ccccc2F)C(=O)N[C@@H](CCC(C)(C)F)C(=O)N(C)[C@@H](Cc2ccccc2)C(=O)NCC23CC(C2)(C3)C(=O)O[C@@H](Cc2ccccc2)C(=O)N1C [compound 225, cyclo(FLac-NMeA-PyrimAla-cBuA-Phe2F-hL3F-NMeF-amBCP)] (cyclo([Cba][Phe(2-F)][X11][NMeF][X1][PhLac][NMeA][Ala(pyrimidin-5-yl)])) | 0.674
18 | CC(C)CC[C@@H]1NC(=O)[C@H](Cc2c(F)ccnc2F)NC(=O)[C@H](CC2CC2)NC(=O)[C@H](Cc2cncnc2)NC(=O)[C@H](C)N(C)C(=O)[C@H](Cc2ccccc2)OC(=O)C23CC(CNC(=O)[C@H](Cc4ccccc4)N(C)C1=O)(C2)C3 [compound 295, cyclo(FLac-NMeA-PyrimAla-cPrA-3Pal26F2-hL-NMeF-amBCP)] (cyclo([Ala(cPr)][X5][hLeu][NMeF][X1][PhLac][NMeA][Ala(pyrimidin-5-yl)])) | 29.6
19 | C[C@H]1C(=O)N[C@@H](Cc2cncnc2)C(=O)N[C@@H](CC2CCC2)C(=O)N[C@@H](Cc2ccccc2F)C(=O)N[C@@H](CCC2CC2)C(=O)N(C)[C@@H](Cc2ccccc2)C(=O)NCC23CC(C2)(C3)C(=O)O[C@@H](Cc2ccccc2)C(=O)N1C [compound 115, cyclo(FLac-NMeA-PyrimAla-cBuA-Phe2F-hcPrA-NMeF-amBCP)] (cyclo([Cba][Phe(2-F)][X31][NMeF][X1][PhLac][NMeA][Ala(pyrimidin-5-yl)])) | 0.437
20 | CCCC[C@@H]1NC(=O)[C@H](Cc2ccccc2F)NC(=O)[C@H](CCCC)OC(=O)[C@H](Cc2cccnc2)NC(=O)[C@H](CCN=[N+]=[N-])N(C)C(=O)[C@H](Cc2ccccc2)NC(=O)C23CC(CNC(=O)[C@H](Cc4cccnc4)N(C)C1=O)(C2)C3 [compound 250, cyclo(F-NMeDabN3-3Pal-NleLac-Phe2F-Nle-NMe3Pal-amBCP)] (cyclo(F[NMeAha][3Pal][X9][Phe(2-F)][Nle][NMe3Pal][X1])) | > 50.8
21 | C[C@H]1C(=O)N[C@@H](Cc2cncnc2)C(=O)N[C@@H](CC2CC2)C(=O)N[C@@H](Cc2ccccc2F)C(=O)NC2CC/C=C\CC[C@@H](C(=O)NCC34CC(C3)(C4)C(=O)O[C@@H](Cc3ccccc3)C(=O)N1C)N(C)C2=O [SEQ ID NO: 182, cyclo(FLac-NMeA-PyrimAla-cPrA-Phe2F-Hag-NMeHag-amBCP)] | 41.2
